Here are results for 1 compound from US20040023990A1, “Use of pyrazolo[4,3-d]pyrimidines” (priority 2000, published 2004).

One may read the melting point as the temperature of the solid-liquid transition. `CCCc1nn(C)c2c(NCc3ccc(OC)c(Cl)c3)nc(CCC(=O)O)nc12` [Example 2, 3-[7-(3-chloro4-methoxybenzylamino)-1-methyl-3-propyl-1H-pyrazolo-[4,3-d]pyrimidin-5-yl]propionic acid]: the melting point turned out to be 178 °C.
